In patent US9603821B2, “Inhibitor of τ protein phosphorylation” (NISHIZAKI BIOINFORMATION RESEARCH INSTITUTE, priority 2013, dated 2017):

Assays:
[1] = target: T1, Human PTP1B (Homo sapiens, UniProt P18031); assay: Assay of PTP1B activity under cell-free conditions (p-NPP dephosphorylation); assay type: biochemical; settings: DCP-LA 1-100 μM, p-NPP 10 mM, FIG. 1
T1 construct: made in house; host or cells: E. coli BL21 (DE3)
T1 sequence (P18031 1-435): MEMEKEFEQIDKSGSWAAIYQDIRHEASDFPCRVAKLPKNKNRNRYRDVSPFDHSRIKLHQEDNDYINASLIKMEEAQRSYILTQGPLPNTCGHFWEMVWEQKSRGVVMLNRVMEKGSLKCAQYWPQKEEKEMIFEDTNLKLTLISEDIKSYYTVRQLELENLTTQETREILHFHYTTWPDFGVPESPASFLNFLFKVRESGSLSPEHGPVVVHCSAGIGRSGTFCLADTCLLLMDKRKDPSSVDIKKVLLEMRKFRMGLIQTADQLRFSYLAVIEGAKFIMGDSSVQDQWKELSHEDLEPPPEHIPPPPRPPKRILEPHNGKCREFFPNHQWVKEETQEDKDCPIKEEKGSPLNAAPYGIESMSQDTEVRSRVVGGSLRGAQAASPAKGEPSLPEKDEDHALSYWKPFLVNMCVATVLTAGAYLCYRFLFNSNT
Experimental: Protein tyrosine phosphatase was measured under cell-free conditions by a method partially modified from the methods described in previous reports (Baba Y, et al. J Am Chem Soc 2003; 125; 9740-9749; Rice R L, et al. Biochemistry 1997; 36: 15965-15974). Human PTP1B was cloned to a pGEX-6P-3 vector having a GST tag at the NH2 terminus, and expressed in competent E. coli BL21 (DE3) suitable for transformation and protein expression. GST fusion PTP1B was affinity-purified using glutathione sepharose 4B (GE Healthcare Bio-Science KK, Tokyo, Japan). It was reacted with p-nitrophenylphosphate (p-NPP) (Sigma, St. Louis, Mo., USA) as a substrate and PTP1B activity was measured. The enzyme was pre-incubated in a reaction medium [50 mM HEPES, 1 mM EDTA, 50 mM NaCl, 1 mM dithiothreitol, pH 7.2] at 37° C. for 30 min in the presence or absence of DCP-LA at a given concentration (1-100 μM) and with or without addition of Na3VO4 which is a PTP1B inhibitor. Then, p-NPP (10 mM) was added to the reaction medium, and the mixture was incubated for 60 min. The reaction was discontinued by the addition of 0.1N NaOH. Dephosphorylated p-NPP, i.e., p-NP, was quantified at an absorbance of 405 nm by using SpectraMax PLUS384 (Molecular Devices, Sunnyvale, Calif., USA).

[2] = tested on: Akt; assay: Akt activation in rat hippocampus section, Western blotting; assay type: cell-based; settings: 100 nM, 3 min, FIG. 3
Experimental: (§1) A rat hippocampus section (male Wister rat, 6-week-old, 400 μm) was incubated in an artificial cerebrospinal fluid (117 mM NaCl, 3.6 mM KCl, 1.2 mM NaH2PO4, 1.2 mM MgCl2, 2.5 mM CaCl2, 25 mM NaHCO3, and 11.5 mM glucose) oxygenated with 95% O2 and 5% CO2, in the presence or absence of DCP-LA (100 nM) at 34° C. for 3 min. In another experiment set, the section was incubated with Aβ1-42 (1 μM) for 3 hr in the presence or absence of DCP-LA (100 nM). After incubation, the section was homogenized by sonication in an ice-cooled cell lysis buffer containing 1% (v/v) protease inhibitor cocktail and 1% (v/v) phosphatase inhibitor cocktail, and the homogenate was centrifuged (3,000 rpm, 5 min, 4° C.). The protein concentration of the supernatant was measured using BCA protein assay kit (Thermo Fisher Scientific, Rockford, Ill., USA). The protein was separated by SDS-polyacrylamide gel electrophoresis (SDS-PAGE), and transferred onto polyvinylidene difluoride membranes. […]
(§2) After washing, the membranes were reacted with horseradish peroxidase-conjugated goat anti-mouse IgG antibody or goat anti-rabbit IgG antibody. The immunoreactivity was detected using ECL kit (GE Healthcare, Piscataway, N.J., USA), and visualized using a chemical luminescence detection system (chemiluminescence detection system; GE Healthcare).

[3] = tested on: GSK-3β; assay: GSK-3β phosphorylation in rat hippocampus section, Western blotting; assay type: cell-based; settings: 100 nM, 3 min, FIG. 4
Experimental: as §1, §2

[4] = tested on: τ protein; assay: τ protein phosphorylation induced by Aβ1-42 in rat hippocampus section, Western blotting; assay type: cell-based; settings: Aβ1-42 1 μM for 3 hr, DCP-LA 100 nM, FIG. 5
Experimental: as §1, §2

[5] = tested on: 5XFAD mouse; assay: Water maze test in 5XFAD mouse; assay type: in vivo; settings: oral, 30 min before water maze test, daily, DCP-LA 1 mg/kg, galanthamine 2.5 mg/kg, FIG. 6
Source text: XFAD transgenic mouse is an animal model of Alzheimer's disease (AD), and contains five mutations of familial Alzheimer's disease (FAD) [Swedish, Florida and London mutations of human amyloid precursor protein (APP), and M146L and L286V mutations of presenilin (PS); Oakley H et al., J. Neurosci. 2006; 26: 10129-10140]. In 5XFAD mouse, Swedish mutation increases production of total amyloid β peptide (Aβ), and the remaining mutations particularly promote production of Aβ1-42.
5XFAD mouse was purchased from The Jackson Laboratory (Bar Harbor, Me., USA), and maintained by crossing with heterozygous transgenic mouse with B6/SJLF1 breeding stock. Non-transgenic wild-type litter-mate was used as a control. All experiments were performed at the age of 5.5-6.5 months.
A circular plastic water tank (diameter 90 cm, depth 36 cm) was used. The inside of the water tank was completely painted in white, and water containing White India ink was filled up to 20 cm from the bottom (22-25° C.). A platform (diameter 11 cm) painted in white was placed in water such that it was 1 cm below the water surface. The water tank was placed in a test room, and several marks seen by the mouse from the water tank were put thereon. During the test, the position of the marks was not changed. A platform was placed a predetermined position from the equal distance from the center and the end of the water tank, namely, center of one quadrant. At one of the randomly selected 3 points, the mouse was released facing the wall of the water tank, and the time necessary for evacuating on the platform (acquisition latency) was measured. When smoothly evacuated, the mouse was left on the platform for 10 seconds. […] The test was performed twice a day, and the second test was started at 30 seconds after the first test. The test was continuously performed for 8 days, and the mean (±SEM) of acquisition latency of continuous 2 days until the mouse reached the platform was calculated. After 7 days, the platform was removed and the time necessary for reaching the place where the platform was located (retention latency) was measured.
DCP-LA and galanthamine were dissolved in polyethylene glycol (PEG). DCP-LA, galanthamine and PEG were administered with an oral gavage needle 30 min before the water maze test.

[6] = target: T2, human recombinant PKCε (Homo sapiens, UniProt Q02156); assay: GSK-3β assay under cell-free conditions with PKCε; assay type: biochemical; settings: FIG. 7
T2 construct: His; purchased Calbiochem
T2 sequence (Q02156 1-737): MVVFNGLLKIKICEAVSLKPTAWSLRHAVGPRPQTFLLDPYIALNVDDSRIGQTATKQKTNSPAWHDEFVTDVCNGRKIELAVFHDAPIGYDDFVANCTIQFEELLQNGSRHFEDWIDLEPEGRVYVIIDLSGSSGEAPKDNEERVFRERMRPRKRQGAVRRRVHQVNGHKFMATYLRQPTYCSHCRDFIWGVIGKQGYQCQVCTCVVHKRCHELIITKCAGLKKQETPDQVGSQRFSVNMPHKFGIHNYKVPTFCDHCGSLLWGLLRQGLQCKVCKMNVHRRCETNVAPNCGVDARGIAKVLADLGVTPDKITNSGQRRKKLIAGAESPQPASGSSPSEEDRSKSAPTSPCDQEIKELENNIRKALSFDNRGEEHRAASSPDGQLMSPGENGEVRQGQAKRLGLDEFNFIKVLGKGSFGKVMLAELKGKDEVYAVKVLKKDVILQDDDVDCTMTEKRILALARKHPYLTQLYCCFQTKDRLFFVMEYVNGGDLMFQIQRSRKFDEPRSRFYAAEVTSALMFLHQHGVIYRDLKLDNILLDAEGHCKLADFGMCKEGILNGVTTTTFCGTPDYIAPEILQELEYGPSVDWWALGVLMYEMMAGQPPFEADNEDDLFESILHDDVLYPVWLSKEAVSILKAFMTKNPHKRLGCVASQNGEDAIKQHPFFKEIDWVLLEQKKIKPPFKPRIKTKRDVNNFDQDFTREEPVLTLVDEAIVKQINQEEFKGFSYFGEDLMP
Experimental: Human recombinant GSK-3β (Sigma, St. Louis, Mo., USA) was reacted with His-tagged human recombinant PKCε (Calbiochem, San Diego, Calif., USA) under cell-free conditions in the presence or absence of a given concentration (1-100 μM) of DCP-LA, and with or without addition of GF109203X, in a culture medium containing 20 mM Tris-HCl (pH 7.5), 5 mM Mg-acetate, 12.5 mM glycerol 2-phosphate and 250 μM ATP at 30° C. for 20 min. The protein was separated by SDS-polyacrylamide gel electrophoresis (SDS-PAGE), and transferred on a polyvinylidene difluoride membrane. The blotting membrane was blocked with TBS-T [150 mM NaCl, 0.1% (v/v) Tween20 and 20 mM Tris, pH 7.5] containing 5% (w/v) BSA, and sequentially reacted with anti-serine 9 phosphorylated GSK-3β antibody (Cell Signaling Technology, Inc., Danvers, Mass., USA) or anti-GSK-3β antibody (Cell Signaling Technology, Inc., Danvers, Mass., USA). After washing, the membrane was reacted with horseradish peroxidase conjugated goat anti-mouse IgG antibody or goat anti-rabbit IgG antibody. The immunoreactivity was detected using ECL kit (GE Healthcare, Piscataway, N.J., USA), and visualized using a chemical luminescence detection system (chemiluminescence detection system; GE Healthcare).

| SMILES | PTP1B inhibition (phosphatase activity, percentage of control) [1] | Akt activation (phosphorylation of Thr308 and Ser473 relative to total Akt) [2] | Ser9 phosphorylation of GSK-3β relative to total GSK-3β [3] | Ser202/Thr205 phosphorylation of τ protein induced by Aβ1-42 relative to total τ protein [4] | acquisition latency [5] | retention latency [5] | Ser9 phosphorylation of GSK-3β by PKCε ([6]; PKCε 1 μg/ml, DCP-LA 1-100 μM) | suppression of DCP-LA/PKCε-induced Ser9 phosphorylation of GSK-3β ([6]; GF109203X 100 nM in the presence of DCP-LA and PKCε) |
| --- | --- | --- | --- | --- | --- | --- | --- | --- |
| CCCCCC1CC1CC1CC1CCCCCCCC(=O)O (stereo not shown) [DCP-LA, 8-[2-(2-Pentyl-cyclopropylmethyl)-cyclopropyl]-octanoic acid] | inhibits PTP1B in a concentration-dependent manner | has an action to activate Akt | phosphorylates (inactivates) GSK-3β | suppresses phosphorylation of τ protein induced by Aβ1-42 | improved extension of both latencies to nearly normal levels | improved extension of both latencies to nearly normal levels | phosphorylates (inactivates) GSK-3β in the presence of PKCε |  |
| CN(C)CCCn1cc(C2=C(c3c[nH]c4ccccc34)C(=O)NC2=O)c2ccccc21 [GF109203X, reference compound] |  |  |  |  |  |  |  | phosphorylation is suppressed by GF109203X |
| COc1ccc2c3c1O[C@H]1C[C@@H](O)C=C[C@@]31CCN(C)C2 [galanthamine, reference compound] |  |  |  |  | showed no effect | showed no effect |  |  |
